Like-named read-outs stand apart in the source and are kept apart here.
Legend:
[1] = tested on: DOHH2 cells; assay: Cell proliferation assay (MTS), DOHH2 cells; assay type: cell-based; settings: DOHH2 (DSMZ ACC 47) cell proliferation, 5000 cells/well, 120 h, MTS, mechanism-based readout of Bcl-2 inhibition, read-out: DOHH2 IC50
Source text: (§1) MTS testing kit was purchased from Promega. The RPMI-1640, Fetal bovine serum and Penicillin-Streptomycin were purchased from Gibco. Dimethyl sulfoxide (DMSO) was purchased from Sigma.
(§2) To investigate whether a compound is able to inhibit the activity of Bcl-2 in cells, a mechanism-based assay using DOHH2 (DSMZ No.® ACC 47) and RS4; 11 (ATCC® CRL-1873™) cell was developed. In this assay, inhibition of Bcl-2 was detected by the inhibition of DOHH2 and RS4; 11 cells proliferation. DOHH2 and RS4; 11 cells were cultured in culture flasks to 40-80% confluence in RPMI-1640 plus 10% fetal bovine serum. Cells were collected and plated onto 96-well plates at desired cell density (DOHH2: 5000 cells/well; RS4; 11: 30000 cells/well). Plates were incubated overnight at 37° C., with 5% CO2 to adhere. Compounds were added to the plates, and the final compound concentrations were 10000, 3333, 1111, […], 124, 41, 14, 4.6 and 1.5 nM. Plates plated with DOHH2 or RS4; 11 cells were placed at 37° C., with 5% CO2 for 120 h (DOHH2) or 72 h (RS4; 11) respectively. 20 μl MTS/100 μl medium mixture solution were added to each well and incubate the plates for exactly 2 hours. The reaction was stopped by adding 25 μl 10% SDS per well. Measure absorbance at 490 nm and 650 nm (reference wavelength). ICso was calculated using GraphPad Prism 5.0.

[2] = tested on: RS4; 11 cells; assay: Cell proliferation assay (MTS), RS4; 11 cells; assay type: cell-based; settings: RS4, 11 (ATCC CRL-1873) cell proliferation, 30000 cells/well, 72 h, MTS, mechanism-based readout of Bcl-2 inhibition, read-out: RS4, 11 IC50
Source text: as §1, §2

| Molecule | IC50 [1] [nM] | IC50 [2] [nM] | IC50 ([1]; Homo sapiens, DOHH-2, 120 h) [nM] | IC50 ([2]; Homo sapiens, RS4-11, 72 h) [nM] |
| --- | --- | --- | --- | --- |
| 2-((1H-pyrrolo[2,3-b] pyridin-5-yl)oxy)-4-(4-((4′- chloro-5,5-dimethyl-3,4,5,6- tetrahydro-[1,1′-biphenyl]-2-yl) methyl)piperazin-1-yl)- N-((4-((2-(4-((dimethyl(oxo)-λ^6- sulfanylidene) amino)piperidin-1-yl)ethyl) amino)-3-nitrophenyl)sulfonyl) benzamide [Example 98] | 176 | 2 | – | – |
| CC(C)C(=O)N=S1(=O)CCN(CCNc2ccc(S(=O)(=O)NC(=O)c3ccc(N4CCN(CC5=C(c6ccc(Cl)cc6)CC(C)(C)CC5)CC4)cc3Oc3cnc4[nH]ccc4c3)cc2[N+](=O)[O-])CC1 [Example 68, 2-((1H-pyrrolo[2,3-b]pyridin-5-yl)oxy)-4-(4-((4′-chloro-5,5-dimethyl-3,4,5,6-tetrahydro-[1,1′-biphenyl]-2-yl)methyl)piperazin-1-yl)-N-((4-((2-(1-(isobutyrylimino)-1-oxido-1λ^6-thiomorpholino)ethyl)amino)-3-nitrophenyl)sulfonyl) benzamide] | – | – | 217 | 24 |
| CC1(C)CCC(CN2CCN(c3ccc(C(=O)NS(=O)(=O)c4ccc(NCC5CCC(NS(C)(=N)=O)CC5)c([N+](=O)[O-])c4)c(Oc4cnc5[nH]ccc5c4)c3)CC2)=C(c2ccc(Cl)cc2)C1 (centres unmarked) [Example 56, 4-(4-{[2-(4-chlorophenyl)-4,4-dimethylcyclohexyl-1-en-1-yl]methyl}piperazin-1-yl)-N-(4-{[(4-methanesulfono-imidamidocyclohexyl)methyl]amino}-3-nitrobenzenesulfonyl)-2-{1H-pyrrolo[2,3-b]pyridine-5-yloxy}benzamide] | 50 | 12 | – | – |
| COC(=O)N=S1(=O)CCN(CC[C@H](C)Nc2ccc(S(=O)(=O)NC(=O)c3ccc(N4CCN(CC5=C(c6ccc(Cl)cc6)CC(C)(C)CC5)CC4)cc3Oc3cnc4[nH]ccc4c3)cc2[N+](=O)[O-])CC1 [Example 84, methyl (S)-(4-(3-((4-(N-(2-((1H-pyrrolo[2,3-b]pyridin-5-yl)oxy)-4-(4-((4′-chloro-5,5-dimethyl-3,4,5,6-tetrahydro-[1,1′-biphenyl]-2-yl)methyl)piperazin-1-yl)benzoyl)sulfamoyl)-2-nitrophenyl)amino)butyl)-1-oxido-1λ^6-thiomorpholin-1-ylidene)carbamate] | – | – | 15 | 11 |
| CCN=S1(=O)CCN(CCNc2ccc(S(=O)(=O)NC(=O)c3ccc(N4CCN(CC5=C(c6ccc(Cl)cc6)CC(C)(C)CC5)CC4)cc3Oc3cnc4[nH]ccc4c3)cc2[N+](=O)[O-])CC1 [Example 34, 2-((1H-pyrrolo[2,3-b]pyridin-5-yl)oxy)-4-(4-((4′-chloro-5,5-dimethyl-3,4,5,6-tetrahydro-[1,1′-biphenyl]-2-yl)methyl)piperazin-1-yl)-A,-((4-((2-(1-(ethylimino)-1-oxido-1λ^6-thiomorpholino)ethyl)amino)-3-nitrophenyl)sulfonyl) benzamide] | – | – | 38 | 106 |
| C[C@@H](CCN1CCS(=O)(=NC(=O)C2CC2)CC1)Nc1ccc(S(=O)(=O)NC(=O)c2ccc(N3CCN(CC4=C(c5ccc(Cl)cc5)CC(C)(C)CC4)CC3)cc2Oc2cnc3[nH]ccc3c2)cc1[N+](=O)[O-] [Example 83, (S)-2-((1H-pyrrolo[2,3-b]pyridin-5-yl)oxy)-4-(4-((4′-chloro-5,5-dimethyl-3,4,5,6-tetrahydro-[1,1′-biphenyl]-2-yl)methyl)piperazin-1-yl)-N-((4-((4-(1-((cyclopropanecarbonyl)imino)-1-oxido-1λ^6-thiomorpholino)butan-2-yl)amino)-3-nitrophenyl)sulfonyl)benzamide] | – | – | 47 | 18 |
| CC1(C)CCC(CN2CCN(c3ccc(C(=O)NS(=O)(=O)c4ccc(NCCN5CCP(C)(=O)CC5)c([N+](=O)[O-])c4)c(Oc4cnc5[nH]ccc5c4)c3)CC2)=C(c2ccc(Cl)cc2)C1 [Example 2, 2-((1H-pyrrolo[2,3-b]pyridin-5-yl)oxy)-4-(4-((4′-chloro-5,5-dimethyl-3,4,5,6-tetrahydro-[1,1′-biphenyl]-2-yl)methyl)piperazin-1-yl)-N-((4-((2-(4-methyl-4-oxido-1,4-azaphosphinan-1-yl)ethyl)amino)-3-nitrophenyl)sulfonyl)benzamide] | – | – | 427 | 163 |
| CC1(C)CCC(CN2CCN(c3ccc(C(=O)NS(=O)(=O)c4ccc(NCC5CCC(N=S6(=O)CCOCC6)CC5)c([N+](=O)[O-])c4)c(Oc4cnc5[nH]ccc5c4)c3)CC2)=C(c2ccc(Cl)cc2)C1 (centres unmarked) [Example 54, 2-((1H-pyrrolo[2,3-b]pyridin-5-yl)oxy)-4-(4-((4′-chloro-5,5-dimethyl-3,4,5,6-tetrahydro-[1,1′-biphenyl]-2-yl)methyl)piperazin-1-yl)-N-((3-nitro-4-(((4-((4-oxido-1,4λ^6-oxathian-4-ylidene)amino)cyclohexyl)methyl)amino)phenyl)sulfonyl) benzamide] | – | – | 9 | 4 |
| CN=S1(=O)CCN(CC[C@H](C)Nc2ccc(S(=O)(=O)NC(=O)c3ccc(N4CCN(CC5=C(c6ccc(Cl)cc6)CC(C)(C)CC5)CC4)cc3Oc3cnc4[nH]ccc4c3)cc2[N+](=O)[O-])CC1 [Example 94, (S)-2-((1H-pyrrolo[2,3-b]pyridin-5-yl)oxy)-4-(4-((4′-chloro-5,5-dimethyl-3,4,5,6-tetrahydro-[1,1′-biphenyl]-2-yl)methyl)piperazin-1-yl)-N-((4-((4-(1-(methylimino)-1-oxido-1λ^6-thiomorpholino)butan-2-yl)amino)-3-nitrophenyl)sulfonyl) benzamide] | – | – | 15 | 27 |
| CC1(C)CCC(CN2CCN(c3ccc(C(=O)NS(=O)(=O)c4ccc(NCC5CCS(=O)(=NC6CC6)CC5)c(S(=O)(=O)C(F)(F)F)c4)c(Oc4cnc5[nH]ccc5c4)c3)CC2)=C(c2ccc(Cl)cc2)C1 (centres unmarked) [Example 8, 2-((1H-pyrrolo[2,3-b]pyridin-5-yl)oxy)-4-(4-((4′-chloro-5,5-dimethyl-3,4,5,6-tetrahydro-[1,1′-biphenyl]-2-yl)methyl)piperazin-1-yl)-N-((4-(((1-(cyclopropylimino)-1-oxidohexahydro-1λ^6-thiopyran-4-yl)methyl)amino)-3-((trifluoromethyl)sulfonyl)phenyl)sulfonyl)benzamide] | – | – | 99 | 33 |
| C[C@@H](CCN1CCS(=O)(=NC(=O)C2CC2)CC1)Nc1ccc(S(=O)(=O)NC(=O)c2ccc(N3CCN(CC4=C(c5ccc(Cl)cc5)CC(C)(C)CC4)CC3)cc2Oc2cnc3[nH]ccc3c2)cc1S(=O)(=O)C(F)(F)F [Example 91, (S)-2-((1H-pyrrolo[2,3-b]pyridin-5-yl)oxy)-4-(4-((4′-chloro-5,5-dimethyl-3,4,5,6-tetrahydro-[1,1′-biphenyl]-2-yl)methyl)piperazin-1-yl)-N-((4-((4-(1-((cyclopropanecarbonyl)imino)-1-oxido-1λ^6-thiomorpholino)butan-2-yl)amino)-3-((trifluoromethyl)sulfonyl)phenyl)sulfonyl)benzamide] | – | – | 255 | 119 |
| CC1(C)CCC(CN2CCN(c3ccc(C(=O)NS(=O)(=O)c4ccc(NCC5CCS(=O)(=NC6CC6)CC5)c([N+](=O)[O-])c4)c(Oc4cnc5[nH]ccc5c4)c3)CC2)=C(c2ccc(Cl)cc2)C1 (centres unmarked) [Example 5, 2-((1H-pyrrolo[2,3-b]pyridin-5-yl)oxy)-4-(4-((4′-chloro-5,5-dimethyl-3,4,5,6-tetrahydro-[1,1′-biphenyl]-2-yl)methyl)piperazin-1-yl)-N-((4-(((1-(cyclopropylimino)-1-oxidohexahydro-1λ^6-thiopyran-4-yl)methyl)amino)-3-nitrophenyl)sulfonyl)benzamide] | – | – | 92 | 43 |
| CCOC(=O)N=S1(=O)CCN(C[C@H](C)Nc2ccc(S(=O)(=O)NC(=O)c3ccc(N4CCN(CC5=C(c6ccc(Cl)cc6)CC(C)(C)CC5)CC4)cc3Oc3cnc4[nH]ccc4c3)cc2S(=O)(=O)C(F)(F)F)CC1 [Example 76, ethyl (S)-(4-(2-((4-(N-(2-((1H-pyrrolo[2,3-b]pyridin-5-yl)oxy)-4-(4-((4′-chloro-5,5-dimethyl-3,4,5,6-tetrahydro-[1,1′-biphenyl]-2-yl)methyl)piperazin-1-yl)benzoyl)sulfamoyl)-2-((trifluoromethyl)sulfonyl)phenyl)amino)propyl)-1-oxido-1λ^6-thiomorpholin-1-ylidene) carbamate] | – | – | 247 | 208 |

Reference: patent US11053239B2, “Compounds as BLC-2-selective apoptosis-inducing agents” (Fochon Pharmaceuticals, Ltd., priority 2017, dated 2021)
